Measured values taken from US5219825A, “Synergistic herbicidal compositions comprising herbicides which generate toxic oxygen radicals and chelating agents which inhibit their detoxification” (Yeda Research and Development Co., Ltd., priority 1986, dated 1993).

Experiments:
[1] = system: Conyza bonariensis high herbicide requiring biotype; experiment: Whole plant spray, visual rating; format: in vivo
Excerpt: (§1) Seeds of Conyza bonariensis were germinated and plants cultivated as outlined in Example 1. Other species were germinated in a similar mixture and treated at 10 days.
(§2) The commercial fungicides, maneb [manganese ethylene-bis(dithiocarbamate) (polymeric)] and zineb [zinc ethylene-bis (dithiocarbamate) (polymeric)] were used, they have similar structures and effects as DDC, but are blocked and act as chelate controls […] to clarify that a synergism would be due to the chelating effect of diethyldithiocarbamate. […] They could not chelate copper due to their being blocked.
(§3) ^a visual ratings (scored 1 day after treatment): 0 no damage to
(§4) slight burn; 1 moderate burn (may regenerate); 2 severe burn (will die)
(§5) Similarly, both the paraquat resistant and sensitive biotypes of Conyza bonariensis were treated with two other oxidant generating herbicides. Atrazine (of the triazine group) is the most widely used oxidant generating herbicides in agriculture. We used various dilutions of a commercial wettable powder (Atranex 50WP-Agan Chemicals) to which we added 0.5% DDC. The effects were scored 24 h later. […] We also tested to see whether acifluorfen, a nitro diphenyl ether herbicide would be synergized. It is generally agreed that light and oxygen are required for its action via oxidant damage. We sprayed a commercial formulation of acifluorfen (Blazer, Rohm and Haas) to which were added 0.25% Tween-20 detergent, with and without DDC. The effects were scored 24 h later.

[2] = system: Conyza bonariensis low herbicide requiring biotype; experiment: Whole plant spray, visual rating; format: in vivo
Excerpt: as §1, §2, §3, §4, §5

bean leaf discs = experiment: Bean leaf disc bleaching assay; format: cell-based; settings: paraquat 20 μM; chelator 0.01% w/v where added; 5 h at 450 μEin.m^-2 s^-1
Experimental: We used this bean leaf disc system to ascertain the potential of chelators to synergize a large variety of phytotoxicants purported to act by generating active oxygen species in the light.
Bean discs were incubated on solutions containing the above mixtures for 5 h at 450 μEin.m^-2 s^-1 and the chlorophyll remaining in the leaves was assayed.

[3] = system: isolated Asparagus sprengeri cells; experiment: Chlorophyll loss in isolated cells (synergism at the cellular level); format: cell-based; settings: for % of control chlorophyll: low light 305 μEin m^-2 s^-1
Experimental: Isolated cells offer an excellent rapid method of screening for phytotoxicity using a large number of potential chelators and synergists. Asparagus sprengeri cells were isolated from cladophylls of field grown plants using the procedure of Colman et al. (Can. J. Botany 57 1505, (1979)) except that the isolation, washing and culture buffer was 50 mM HEPES brought to pH 7.2 with KOH. The cladophylls were surface sterilized using 80% aqueous ethanol. After three centrifugations to remove broken cells, the cells were diluted to 10% packed volume and 0.75 ml were placed in each well of cluster dishes. The potential synergists in this example 0.02% w/v final concentration diethyldithiocarbamate (DDC) and an oxime of 4-octyl-2-acetyl-phenol (U.S. Pat. No. 4,215,219) which complex primarily with copper and di-2-ethylhexyl-phosphoric acid which complexes primarily with zinc (Flett, Chem and Ind. 17 706, (1977)) was placed with the herbicides atrazine and paraquat. All additions were made at 100 fold the final concentration of herbicide and synergist. Paraquat was dissolved in water and atrazine in methanol. The cluster dishes were incubated on a reciprocal shaker with a clear plastic bottom and illuminated from top and bottom with fluorescent lights emitting 135 μEin.m^-2 s^-1 (top) and 170 μEin.m^-2 s^-1 (bottom). The cells were kept mixed by the shaker and incubation was at room temperature. Incubation was stopped when there was visually obvious loss of chlorophyll due to treatments in a given experiment. The cells were removed to glass centrifugation tubes, centrifuged and the supernatant removed. One ml of 80% aqueous acetone was added to extract chlorophyll, the debris were sedimented by centrifugation and chlorophyll was spectrophotometrically determined at 645 and 663 nm according to Arnon (Plant Physiology 24 1, (1949)). […] In another experiment, a larger variety of chelating synergists and oxidant generating herbicides were used, and light was given at a much higher intensity 1000 μEin m^-2 s^-1 to better approach natural sunlight which is at 1200-1500 […].
Paraquat toxicity was measured 24 h after treatment and atrazine toxicity was measured 40 h after treatment.
Paraquat toxicity was measured 14 h after treatment.

[4] = system: Conyza bonariensis paraquat sensitive (low herbicide requiring) biotype; experiment: Malonyldialdehyde in tissue (lipoxidation, membrane damage) after spraying; format: in vivo; settings: atrazine 0 μM; DDC 0.5% alone; low herbicide requiring biotype; untreated control = 100
Experimental: (§6) Seeds of two biotypes of Conyza bonariensis (L.) Cronq. (synonym C. linifolia) were obtained from Egypt. The paraquat sensitive biotype was gathered near Alexendria and seeds of the resistant type from the Tahrir irrigation district. They were obtained from Dr. Martin Parham in England. Seeds were germinated in a growth room with a 14 h light period at 25° C. Plants were transferred out of doors 24 h before being sprayed. The phytotoxicity of three herbicides representative of the three different modes of generating active oxygen species known at present. Commercial paraquat (Gramoxone-ICI Plant Protection Ltd) was formulated with 0.1% (w/v) Tween-20 (a non-ionic surfactant) for spraying. The response to the range of 10^-5 M to 10^-2 M paraquat was measured by spraying two plants per concentration to run-off in the early morning. All plants were exposed to sunlight for at least 13 h (1300 μE.m^-2s^-1 photosynthetically active radiation (PAR) at mid day). Commercial acifluorfen (Blazer, Rohm, and Hass, Philadelphia, Pa., USA) to which was added 0.25% Tween-20 was sprayed to run-off. The response to spraying was measured as with paraquat 24 h after spraying. Commercial atrazine (Atranex 50 WP-Agan) was sprayed at various rates in 0.25% Tween 20 to run off. Fully expanded, 8 to 10 cm long leaves from plants in the rosette stage were used in all experiments. Phytotoxicity of acifluorfen and paraquat was measured as CO2 fixation 24 h later as follows: Detached leaves were placed on wet filter paper in a sealed chamber with 5μ Ci^14 C-sodium bicarbonate. Tartaric acid was remotely dripped on the sodium bicarbonate to release ^14 CO2. Leaves were illuminated with […] (PAR) for 30 min. Eighty percent acetone was added and the mixture put under strong light to photobleach pigments and evaporate the acetone. A scintillation mixture of Lumax:xylene (45:55) was added to the leaves and remaining water. The samples were counted and the data expressed as DPM.cm^-2. Area was measured with a planimeter from photocopies of the leaves made prior to photosynthesis measurements. Phytotoxicity of atrazine was measured as the elevated level of malonyldialdehyde in the tissue. Malonyldialdehyde (as measured with thiobarbituric acid according to Dodge and Gillham (Asp. Appl. Biol 11 97 (1986)) is a measurement of lipoxidation of unsaturated fatty acids, and provides an excellent estimation of damage by active oxygen species.
(§7) ^b membrane damage was measured as malonyldialdehyde release
as §5

[5] = system: Conyza bonariensis paraquat tolerant (high herbicide requiring) biotype; experiment: as above; format: in vivo; settings: atrazine 0 μM; DDC 0.5% alone; high herbicide requiring biotype; untreated control = 100
Experimental: as §6, §7, §5

SMILES	effect of paraquat spray ([1]; 1 mM spray of paraquat, paraquat resistant biotype)	visual rating ([1]; paraquat 1000 μM spray to run-off, DDC 0.75% W/V where added, high herbicide requiring biotype, scored 1 day after treatment)	visual rating ([2]; paraquat 30 μM spray to run-off, DDC 0.75% W/V where added, scored 1 day after treatment)	chlorophyll - % of control (bean leaf discs)	chlorophyll remaining - % of control ([3]; isolated cladophyll cells, 840 min)	chlorophyll remaining - % of control ([3]; paraquat 10 μM, Tetraethylene-pentamine 0.025% where added, 14 h, 1000 μEin m^-2 s^-1)	chlorophyll remaining - % of control ([3]; paraquat 20 μM, 4-Octyl-2-acetyl-phenol oxime 0.125% where added, 14 h, 1000 μEin m^-2 s^-1)	chlorophyll remaining - % of control ([3]; paraquat 20 μM, Pyridine-2,6-dicarboxylic acid 0.005% where added, 14 h, 1000 μEin m^-2 s^-1)	chlorophyll remaining - % of control ([3]; paraquat 20 μM, di-2-ethyl-hexyl-phosphoric acid 0.001% where added, 14 h, 1000 μEin m^-2 s^-1)	% of control chlorophyll ([3]; paraquat 10^-6, DDC 0.02% where added, 24 h, 1 µM)	visual ratings ([1]; atrazine 0 μM, DDC 0.5% alone, high herbicide requiring biotype, scored one day after treatment)	visual ratings ([2]; atrazine 0 μM, DDC 0.5% alone, scored one day after treatment)	membrane damage (malonyldialdehyde release) [4]	membrane damage (malonyldialdehyde release) [5]	% of control chlorophyll ([3]; no herbicide, DDC 0.02% alone, atrazine series, 40 h)	% of control chlorophyll ([3]; no herbicide, DDC 0.02% alone, paraquat series, 24 h)
C[n+]1ccc(-c2cc[n+](C)cc2)cc1 [paraquat, 1,1'-dimethyl-4-4'bipyridium ion]	hardly affected	0.9	1.8	52 % of control	56 % of control	89 % of control	74 % of control	9 % of control	72 % of control	107 % of control						
CCN(CC)C(=S)[S-].[Na+] [DDC, Sodium diethyldithiocarbamate]											0.6	1.6	125	112	120 % of control	116 % of control
